Assay results reported in US4069337A, “2-Substituted-indole-1-lower-alkanecarboxamides having anti-secretory or anti-ulcer activity” (Sterling Drug Inc., priority 1976, dated 1978).
Read-outs that look alike come from different tables or passages of the source.

Columns and labels:
[1] = tested on: secretion of gastric fluids; assay: anti-secretory activity in pylorus-ligated rats (method of Shay et al.); assay type: in vivo, male albino Wistar rats
Procedure: In standard biological test procedures, described generally by Shay et al., Gastroenterology 5, 43 (1945) and 26, 906 (1954) and by Selmici et al., Acta Physiol. Acad. Sci. Hung. […] Anti-secretory activity was determined in male albino Wistar rats weighing approximately 180 g. using the method described by Shay et al. which is described as follows: the rats were divided into medicated groups of at least five rats each and control groups of ten rats. The rats were medicated orally once daily for 2 days prior to stomach ligation and once again immediately following ligation. All drugs were administered as the free base, and control rats received only the vehicle of medication. The rats were housed individually in wire cages, food was withdrawn 48 hours prior to surgery, and water was withdrawn at the time of surgery. Laparotomy was performed under light ether anesthesia, the pyloric-duodenal junction was ligated, and the wound was closed with metal clips and sprayed with a protective surgical dressing. Five hours following surgery, the rats were sacrificed, the stomach was removed, and the gastric juice collected. The gastric fluid was centrifuged, the total volume, color, and volume of solids were recorded. The pH of the gastric fluid was then determined on a Beckman pH meter, and the "free" and "total" hydrochloric acid content of each gastric sample was determined by titrating an aliquot of the gastric fluid (diluted to approximately 10 ml. with distilled water) by titrating with 0.1N sodium hydroxide against Toepfers reagent and phenolphthalein, respectively. By determining the milliequivalents of hydrochloric acid per milliliter of gastric juice and knowing the total volume of gastric juice secreted by each rat, the total acid output can be calculated. Since pH is a function of "free" acid, the activity of the test compounds can be evaluated by comparison of the mean "free" acid of medicated rats with the mean "free" acid of the controls, and the activity can thus be expressed in terms of percent inhibition of free acid.
(§1) Data obtained on administration of the compounds of formula I in rats in the anti-secretory and anti-ulcer tests described above are given in the table below. Unless noted otherwise, data were obtained on oral administration. Results in the anti-secretory activity tests are given in terms of the pH of the gastric fluid in the test animals and the percent inhibition of free acid, while results in the anti-ulcer test are given either in terms of the percent inhibition of ulcers or as a ratio representing the number of animals with ulcers (as the numerator) to the total number of animals in the test group (as the denominator). All doses are expressed in mg./kg.

[2] = tested on: reserpine-induced stomach ulceration; assay: anti-ulcer activity, reserpine-induced ulcer test (method of Selmici et al.); assay type: in vivo, male, albino, Sprague-Dawley rats; details: for inhibition in vivo at 100 mg/kg / Anti-Ulcer: ratio of number of animals with ulcers to total number of animals in the test group: 100 mg./kg.
Procedure: The anti-ulcer activity of the compounds was determined using the reserpine-induced anti-ulcer test method, described by Selmici et al., which is described briefly as follows: male, albino, Sprague-Dawley rats, weighing approximately 300 g., were divided into medicated and control groups of at least five rats each, and one positive control group of five rats medicated with a known drug at the active dose was run with each experiment. The rats were medicated forty-eight, twenty-four, and one hour before receiving an injection of reserpine. All test drugs were administered orally in terms of base, and the control rats received only the vehicle of medication. The rats were housed individually in wire cages, and food was withdrawn 24 hours prior to injection of reserpine, while water was allowed ad libitum. One hour following the third medication, 5.0 mg. of reserpine per kilogram of body weight in a concentration of 5 mg./ml. was injected intramuscularly in each rat. Eighteen hours after injection the rats were sacrificed, their stomachs removed, opened along the greater curvature, rinsed in warm saline, and pinned to a cork board for gross observation. The stomachs were examined for the number and size of ulcerations located in the glandular portion of the stomach with the aid of a one millimeter grid ocular with a 10x dissecting microscope. The degree of ulceration was arbitrarily graded according to the number and size of the ulcers as follows:
The points were added together and divided by the number of rats in each group to give an ulcer score, and the difference in the mean scores of the medicated and control group was expressed as percent inhibition of ulceration. Alternatively, the results can be expressed as a ratio of the total number of rats with any degree of ulceration (as the numerator) to the total number of rats in the test group (as the denominator).
as §1

[3] = tested on: reserpine-induced stomach ulceration; assay: as above; assay type: in vivo, male, albino, Sprague-Dawley rats; details: for inhibition in vivo at 50 mg/kg: Rattus norvegicus, sc, 18 h; for Anti-Ulcer: ratio of number of animals with ulcers to total number of animals in the test group: s.c., 50 mg./kg.
[4] = Rattus norvegicus, po, 5 h, oral, 100 mg./kg., read-out: % Inhibition of Free Acid
[5] = Rattus norvegicus, intraduodenal, 5 h, i.d., 100 mg./kg., read-out: % Inhibition of Free Acid
[6] = Rattus norvegicus, ip, 5 h, i.p., 100 mg./kg., read-out: % Inhibition of Free Acid
[7] = Rattus norvegicus, sc, 5 h, s.c., 100 mg./kg., read-out: % Inhibition of Free Acid

Row | SMILES | inhibition in vivo at 100 mg/kg [1, 4] [%] | pH of the gastric fluid ([1]; oral, 100 mg./kg.) | inhibition in vivo at 100 mg/kg ([2]; Rattus norvegicus, 18 h, oral) [%] | inhibition in vivo at 100 mg/kg [1, 5] [%] | inhibition in vivo at 100 mg/kg [1, 6] [%] | inhibition in vivo at 100 mg/kg [1, 7] [%] | pH of the gastric fluid ([1]; i.d., 100 mg./kg.) | pH of the gastric fluid ([1]; i.p., 100 mg./kg.) | pH of the gastric fluid ([1]; s.c., 100 mg./kg.) | further results
1 | CNC(=O)Cn1c(C)c(C)c2ccccc21 [Example 1B, 2,3-Dimethyl-1-indole-N-methylacetamide] | 45 | 1.8 | 91 | – | – | – | – | – | – | inhibition in vivo at 6.25 mg/kg ([1]; Rattus norvegicus, intraduodenal, 5 h, i.d., 6.25 mg./kg., read-out: % Inhibition of Free Acid): 46%; pH of the gastric fluid ([1]; i.d., 6.25 mg./kg.): 1.4; inhibition in vivo at 50 mg/kg [3]: 93%
2 | Cc1c(C)n(CC(=O)NCCO)c2ccccc12 [Example 3A, 2,3-dimethyl-1-indole-N-(2-hydroxyethyl)acetamide] | 22 | 1.4 | 84 | – | – | – | – | – | – | inhibition in vivo at 50 mg/kg [3]: 69%
3 | Cc1c(C)n(CCC(N)=O)c2ccccc12 [Example 4A, β-(2,3-dimethyl-1-indole)propionamide] | 100 | 5.3 | – | – | – | – | – | – | – | inhibition in vivo at 1.56 mg/kg ([2]; Rattus norvegicus, 18 h, oral, 1.56 mg./kg.): 43%; inhibition in vivo at 6.25 mg/kg ([2]; Rattus norvegicus, 18 h, oral, 6.25 mg./kg.): 48%; inhibition in vivo at 25 mg/kg ([2]; Rattus norvegicus, 18 h, oral): 93%; inhibition in vivo at 50 mg/kg [3]: 89%
4 | Cc1c(C)n(C(N)=O)c2ccc(Cl)cc12 [Example 5, 2,3-dimethyl-5-chloro-1-indolecarboxamide] | 41 | 2.0 | – | – | – | – | – | – | – | inhibition in vivo at 25 mg/kg ([2]; Rattus norvegicus, 18 h, oral): 0%
5 | Cc1c(C=O)c2ccccc2n1CC(N)=O [Example 6, 2-methyl-3-formyl-1-indoleacetamide] | – | 1.1 | 0 | – | – | – | – | – | – | inhibition in vivo at 100 mg/kg ([1]; Rattus norvegicus, 5 h, oral, 100 mg./kg., read-out: % Inhibition of Free Acid): 0%
6 | Cc1c(C)n(CC(N)=S)c2ccccc12 [Example 7A, 2,3-dimethyl-1-indolethioacetamide] | 58 | 2.3 | – | – | – | – | – | – | – | inhibition in vivo at 25 mg/kg ([2]; Rattus norvegicus, 18 h, oral): 75%
7 | Cc1c(C)n(CCC(N)=S)c2ccccc12 [Example 7B, β(2,3-dimethyl-1-indole)thiopropionamide] | 60 | 2.2 | 100 | – | – | – | – | – | – | –
8 | Cc1c(CO)c2ccccc2n1CCC(N)=O [Example 8A, β-(2-methyl-3-hydroxymethyl-1-indole)propionamide] | 69 | 1.9 | 56 | 100 | 100 | 100 | 5.6 | 7.0 | 6.7 | –
9 | Cc1c(CO)c2ccccc2n1CCCC(N)=O [Example 8B, γ-(2-Methyl-3-hydroxymethyl-1-indole)butyramide] | 5 | 1.3 | 0 | 5 | 62 | 12 | 1.2 | 2.4 | 1.2 | –
10 | Cc1c(CO)c2ccccc2n1CC(N)=O [Example 8C, 2-Methyl-3-hydroxymethyl-1-indoleacetamide] | 62 | 1.5 | – | 30 | 61 | 100 | 1.1 | 2.0 | 6.9 | Anti-Ulcer: ratio of number of animals with ulcers to total number of animals in the test group [3]: 0/5
11 | NC(=O)CCn1c(-c2ccccc2)c(CO)c2ccccc21 [Example 8D, β-(2-Phenyl-3-hydroxymethyl-1-indole)propionamide] | 28 | 1.5 | – | – | – | 38 | – | – | 1.4 | Anti-Ulcer: ratio of number of animals with ulcers to total number of animals in the test group ([2]; oral): 0/5
12 | Cc1c(CO)c2cc(F)ccc2n1CCC(N)=O [Example 8E, β-(2-Methyl-3-hydroxymethyl-5-fluoro-1-indole)propionamide] | 22 | 1.1 | – | 89 | 100 | 100 | 3.5 | 5.9 | 6.1 | Anti-Ulcer: ratio of number of animals with ulcers to total number of animals in the test group [3]: 1/3
13 | Cc1c(C(O)C(F)(F)F)c2ccccc2n1CCC(N)=O (stereo not drawn) [Example 8F, β-[2-Methyl-3-(2-trifluoro-1-hydroxyethyl)-1-indole]-propionamide] | 2 | 1.0 | – | 69 | 24 | 7 | 1.5 | 1.2 | 1.0 | inhibition in vivo at 50 mg/kg ([2]; Rattus norvegicus, 18 h, oral, 50 mg./kg.): 45%
14 | Cc1c(CO)n(CCC(N)=O)c2ccccc12 [Example 8G, β-(2-hydroxymethyl-3-methyl-1-indole)propionamide] | 22 | 1.3 | – | 33 | 34 | – | 1.4 | 1.7 | – | Anti-Ulcer: ratio of number of animals with ulcers to total number of animals in the test group ([2]; oral): 3/5
15 | Cc1cn(CC(N)=O)c2ccccc12 [Reference, 3-methyl-1-indole-acetamide, reference compound] | 62 | 2.3 | 75 | – | – | – | – | – | – | anti-secretory activity (in words) ([1]; rat, in vivo): has anti-secretory and anti-ulcer activities; anti-ulcer activity (in words) ([2]; rat, in vivo): has anti-secretory and anti-ulcer activities
